Source: patent publication US11726102B2, “Particle-based drug detection method and device embodiments” (Washington State University, priority 2015, dated 2023)
“And” between values parts separate entries of the source, which are not always exact repeats. Equal values may be shown once. Read-outs that look alike come from different tables or passages of the source.

Columns and labels:
[1] = cited from earlier work
[2] = THC on swab and in spit after cannabis inhalation (HPLC-MS); conditions: saliva spit into collection vial after inhaling cannabis; one line per volunteer (V14, V27, V40)
[3] = at 25° C.; cited from earlier work
[4] = cited from earlier work; remark: listed apart in the source

CCCCCc1cc(O)c2c(c1)OC(C)(C)[C@@H]1CCC(C)=C[C@@H]21 [THC, Δ^9-tetrahydrocannabinol]
time THC can be detected in the blood ([1]; after inhalation, blood analyses by GC-MS or LC-MS): 3.5 to 5.5 h
time detectable in human samples after use ([1]; chronic users): up to 15 days
time detectable in human samples after use ([1]; occasional users): 1.3 days
THC in Spit [2]: 2110.1 ng and 2259.2 ng and 129.6 ng
vapor pressure [3]: 4.6×10^−8 mmHg
time for the concentration in the body to build up to intoxication levels ([4]; after being consumed): at least 20 minutes
psychoactive effects of THC felt after initial consumption ([4]; after inhalation, estimated): 2 to 4 h
